pIC50: −log10 of the molar value.
Tests used:
[1] = test system: TNF-α; assay: TLR-induced cytokine release in human PBMC: TNF-alpha (ELISA); assay type: cell-based; conditions: human PBMC stimulated using a TLR ligand, incubated 18 hours with test substance, supernatant ELISA
Experimental: (§1) TLR-Induced Cytokine Release in Human “Peripheral Blood Mononuclear Cells” (PBMC)
(§2) PBMCs isolated from human whole blood are stimulated using a TLR ligand. The cytokine determination is carried out by means of ELISA kits; a proliferation/cell metabolism determination is carried out using Alamar Blue.
(§3) For the cell preparation, about 200 ml of blood are treated with an anticoagulant (e.g. citrate Monovettes). Per Leucosep tube, 15 ml of Histopaque (room temperature, RT) are poured in and pressed downwards through the frit employed by brief initial centrifugation (one minute at 1000×g, RT). 20 ml of blood are added to the tubes prepared in this way and centrifuged at 800×g for 15 minutes (RT). After centrifugation, the following layered arrangement results from the top to the bottom: plasma—PBMC—Histopaque—filter disc—Histopaque—erythrocytes and granulocytes. The supernatant plasma is aspirated. The PBMC are transferred together with the underlying Histopaque to a new 50 ml tube, the contents of two Leucosep tubes always being added to one 50 ml tube. The 50 ml tubes are then filled to 50 ml with PBS. This cell suspension is centrifuged at 300×g (RT) for 10 minutes. The liquid supernatant is tipped off and the cell pellet is resuspended with a little PBS and subsequently filled to 50 ml with PBS. This washing step is repeated twice. The resulting pellet is taken up in a defined volume of medium (with additives). For the testing of the substances, PBMC are incubated for 18 hours with titrated concentrations of the test substances, e.g. in the presence or absence of TLR ligands. On the next day, the supernatants are investigated for the content of IL-12, TNF-alpha or other chemokines by means of specific ELISA. The metabolic activity of the treated cells is determined with the aid of Alamar Blue.

[2] = test system: IL-12; assay: TLR-induced cytokine release in human PBMC: IL-12 (ELISA); assay type: cell-based; conditions: human PBMC stimulated using a TLR ligand, incubated 18 hours with test substance, supernatant ELISA
Experimental: as §1, §2, §3

SMILES | pIC50 [1] | pIC50 [2]
CCS(=N)(=O)c1cccc(COc2cc3ncnc(NC(C)C)c3cc2OC)c1 (racemic) [Example 2.10, (RS)-S-Ethyl-S-[3-({[4-(isopropylamino)-6-methoxyquinazolin-7-yl]oxy}-methyl)phenyl]sulphoximide] | 6.70 | 6.40
CC(C)Nc1ncnc2cc(OCc3ccc(S(C)(=N)=O)cc3)c(Br)cc12 (racemic) [Example 2.8, (RS)-S-[4-({[6-Bromo-4-(isopropylamino)quinazolin-7-yl]oxy}methyl)phenyl]-S-methylsulphoximide] | 5.40 | 4.82
CC(C)Nc1ncnc2cc(OCc3cncc(S(C)(=N)=O)c3)c(Br)cc12 (racemic) [Example 3.7, (RS)-S-[5-({[6-Bromo-4-(isopropylamino)quinazolin-7-yl]oxy}methyl)pyridin-3-yl]-S-methylsulphoximide] | 6.00 | 5.40
CC(C)Nc1ncnc2cc(OCc3cccc(S(C)(=N)=O)c3)c(Br)cc12 (racemic) [Example 1.2, (RS)-S-[3-({[6-Bromo-4-(isopropylamino)quinazolin-7-yl]oxy}methyl)phenyl]-S-methylsulphoximide] | 5.68 | 5.39
COc1cc2c(NC(C)C)ncnc2cc1OCCCS(C)(=N)=O (racemic) [Example 3.4, (RS)-S-(4-{[4-(Isopropylamino)-6-methoxyquinazolin-7-yl]oxy}propyl)-S-methyl-sulphoximide] | 5.00 | 4.82
